{
  "source": "patent US20070105792A1",
  "about": "“Administration Of DNA Methylation Inhibitors For Treating Epigenetic Diseases” (priority 2005, published 2007)",
  "key": {"adult patients with MDS [1]": {"tested_on": "adult patients with MDS", "assay": "Randomized open-label controlled clinical study of decitabine plus supportive care in MDS patients", "format": "in vivo, human", "from_the_text": "A randomized open-label, controlled clinical study at 23 sites evaluated 170 adult patients with MDS meeting French-American-British (FAB) classification and International Prognostic Scoring System (IPSS) High-Risk, Intermediate-2 and Intermediate-1 prognostic scores.\nEighty-nine patients were randomized to decitabine therapy plus supportive care (only 83 received drug), and 81 to Supportive Care (SC) alone. Patients with Acute Myeloid Leukemia (AML) were not intended to be included.\nDecitabine was supplied as a lyophilized powder, 50 mg in 20 mL vials, for reconstitution and injection. Decitabine was reconstituted with 10 mL of Sterile Water for Injection USP to yield a solution of 5 mg/mL decitabine and 6.8 mg/mL KH2PO4. The reconstituted solution was further diluted for intravenous infusion with prechilled (2-8° C.) 0.9% Sodium Chloride solution USP. To slow degradation of study drug, infusion solution was refrigerated at 2-8° C. until administration, for a maximum of 10 hours.\nPatients randomized to the decitabine arm received decitabine intravenously infused at a dose of 15 mg/m^2 over a three-hour period, every eight hours, for 3 consecutive days (1 cycle). Each administration of decitabine at a dose of 15 mg/m^2 infused over a three-hour period was a continuous infusion without changing the infusion bag. The total amount of decitabine per day was 45 mg/m^2; the total dose per cycle was 135 mg/m^2. […] For patients with inadequate counts 6 weeks after treatment, the study protocol specified that blood counts be repeated at least weekly during the following two-week interval, and that a reduced-dose cycle (11 mg/m^2 over a three-hour period, every eight hours, for 3 consecutive days) was to be administered if blood counts recovered to within acceptable limits (as defined above) between week 6 and 8.\nDelayed myelotoxicity, with a neutrophil nadir reached between about day 18-24, is the primary toxicity of decitabine. Cytopenias, however, are also a hallmark of the MDS disease process, making it difficult to distinguish between treatment-related neutropenia and disease progression. Accordingly, the protocol required that patients showing persistent neutropenia (ANC <1,000/μL) or thrombocytopenia (platelets <50,000/μL) beyond 8 weeks following a decitabine cycle undergo bone marrow aspiration and biopsy. Upon a finding of no disease progression (i.e. only bone marrow aplasia), blood counts were to be monitored for an additional two weeks, and a reduced-dose cycle (as defined above) was to be administered if blood counts recovered to within acceptable limits (as defined above) during weeks 8-10. Patients showing neutropenia or thrombocytopenia beyond 10 weeks were to receive no further decitabine treatment.\nSupportive care consisted of blood and blood product transfusions, prophylactic antibiotics, and hematopoietic growth factors. Co-primary endpoints of the study were overall response rate (CR+PR) and time to AML or death. Responses were classified with the MDS International Working Group (IWG) criteria; patients were required to be RBC and platelet transfusion independent during the time of response."}, "adult patients with MDS [2]": {"tested_on": "adult patients with MDS", "settings": "about; after a decitabine cycle; cited from earlier work"}, "cytidine deaminases": {"tested_on": "cytidine deaminases", "settings": "enzymatic degradation by cytidine deaminases, particularly in the small intestine; cited from earlier work"}, "[3]": {"settings": "ITT, N = 89, 15 mg/m^2 3 hr iv infusion every 8 hrs for 3 days"}, "[4]": {"settings": "ITT, N = 89, listed as decitabine"}, "[5]": {"settings": "patients evaluable for response (confirmed MDS at baseline, at least 2 courses)"}, "[6]": {"settings": "patients with adjudicated baseline diagnosis of AML"}, "[7]": {"settings": "patients with cytogenetic abnormalities, MDS IWG criteria"}},
  "note": "Marks after values point to notes of the source that are not given here.",
  "data": [
    {"smiles": "Nc1ncn([C@H]2C[C@H](O)[C@@H](CO)O2)c(=O)n1", "note": "[Decitabine, 5-aza-2′-deoxycytidine]", "values": [
      {"measurement": "Response by IPSS Classification (CR + PR)", "setting": "adult patients with MDS [1]; High Risk", "value": "(13%)"},
      {"measurement": "Response by IPSS Classification (CR + PR), responders/patients", "setting": "adult patients with MDS [1]; High Risk", "value": "3/23"},
      {"measurement": "Median Duration of (CR + PR + HI) response", "setting": "adult patients with MDS [1]; ITT", "value": 253, "unit": "days"},
      {"measurement": "Median time to (CR + PR + HI) response", "setting": "adult patients with MDS [1]; ITT", "value": 44, "unit": "days"},
      {"measurement": "Complete Response (CR)", "setting": "adult patients with MDS [1]; ITT, N = 89", "value": "(9%)"},
      {"measurement": "Complete Response (CR), number of patients", "setting": "adult patients with MDS [1]; ITT, N = 89", "value": 8},
      {"measurement": "Hematologic Improvement (HI)", "setting": "adult patients with MDS [1]; ITT, N = 89", "value": "(12%)"},
      {"measurement": "Hematologic Improvement (HI), number of patients", "setting": "adult patients with MDS [1]; ITT, N = 89", "value": 11},
      {"measurement": "Overall Improvement Rate (CR + PR + HI)", "setting": "adult patients with MDS [1]; ITT, N = 89", "value": "(29%)**"},
      {"measurement": "Overall Improvement Rate (CR + PR + HI), number of patients", "setting": "adult patients with MDS [1]; ITT, N = 89", "value": 26},
      {"measurement": "Partial Response (PR)", "setting": "adult patients with MDS [1]; ITT, N = 89", "value": "(8%)"},
      {"measurement": "Partial Response (PR), number of patients", "setting": "adult patients with MDS [1]; ITT, N = 89", "value": 7},
      {"measurement": "Overall Response Rate (CR + PR)", "setting": "adult patients with MDS [1]; [3]", "value": 17, "unit": "%"},
      {"measurement": "Overall Response Rate (CR + PR), number of patients", "setting": "adult patients with MDS [1]; [3]", "value": 15},
      {"measurement": "Hematologic Improvement (HI)", "setting": "adult patients with MDS [1]; [4]", "value": 12, "unit": "%"},
      {"measurement": "Overall Improvement Rate (CR + PR + HI)", "setting": "adult patients with MDS [1]; [4]", "value": 29, "unit": "%"},
      {"measurement": "Response by IPSS Classification (CR + PR)", "setting": "adult patients with MDS [1]; Int-1", "value": "(14%)"},
      {"measurement": "Response by IPSS Classification (CR + PR), responders/patients", "setting": "adult patients with MDS [1]; Int-1", "value": "4/28"},
      {"measurement": "Response by IPSS Classification (CR + PR)", "setting": "adult patients with MDS [1]; Int-2", "value": "(21%)"},
      {"measurement": "Response by IPSS Classification (CR + PR), responders/patients", "setting": "adult patients with MDS [1]; Int-2", "value": "8/38"},
      {"measurement": "Patients who became transfusion independent", "setting": "adult patients with MDS [1]; RBC transfusion dependent at baseline", "value": 39, "unit": "%"},
      {"measurement": "RBC and platelet transfusion status of responders", "setting": "adult patients with MDS [1]; all 15 responders, in the absence of growth factors", "value": "remained or became RBC and platelet transfusion independent"},
      {"measurement": "Quality of Life assessment (EORTC scale)", "setting": "adult patients with MDS [1]; baseline, end of each treatment cycle and post-treatment", "value": "less dyspnea, less fatigue and better physical functioning and global health status"},
      {"measurement": "Median time to AML or death", "setting": "adult patients with MDS [1]; decitabine arm, p=0.160, ns vs SC", "value": 340, "unit": "days"},
      {"measurement": "Cycle by which all responders had responded", "setting": "adult patients with MDS [1]; decitabine patients who responded", "value": "by the fourth cycle"},
      {"measurement": "Median Duration of (CR + PR) response", "setting": "adult patients with MDS [1]; decitabine responders", "value": 266, "unit": "days"},
      {"measurement": "Median time to (CR + PR) response", "setting": "adult patients with MDS [1]; decitabine responders", "value": 89, "unit": "days"},
      {"measurement": "Overall response rate", "setting": "adult patients with MDS [1]; [5]", "value": 21, "unit": "%"},
      {"measurement": "Overall response rate, responders/patients", "setting": "adult patients with MDS [1]; [5]", "value": "12/56"},
      {"measurement": "Objective response (CR or PR)", "setting": "adult patients with MDS [1]; [6]", "value": 56, "unit": "%"},
      {"measurement": "Objective response (CR or PR), responders/patients", "setting": "adult patients with MDS [1]; [6]", "value": "5/9"},
      {"measurement": "Major cytogenetic responses", "setting": "adult patients with MDS [1]; [7]", "value": 21, "unit": "%"},
      {"measurement": "Major cytogenetic responses, responders/patients", "setting": "adult patients with MDS [1]; [7]", "value": "10/48"},
      {"measurement": "Minor cytogenetic response, number of patients", "setting": "adult patients with MDS [1]; [7]", "value": "one"},
      {"measurement": "Patients who became transfusion dependent", "setting": "adult patients with MDS [1]; transfusion independent at baseline", "value": 15, "unit": "%"},
      {"measurement": "Neutrophil nadir (delayed myelotoxicity, primary toxicity)", "setting": "adult patients with MDS [2]", "value": "18 to 24", "unit": "days"},
      {"measurement": "Oral bioavailability", "setting": "cytidine deaminases", "value": "reduced oral bioavailability"}
    ]}
  ]
}
